Measured values as given in patent US10590392B2, “Generation of airway epithelial organoids from human pluripotent stem cells” (TRUSTEES OF BOSTON UNIVERSITY, priority 2017, dated 2020).

Legend:
[1] = system: 7XTCF-mCherry Wnt reporter in FG293 cells; assay: Lentiviral 7XTCF-mCherry Wnt reporter dose-response in FG293 cells; settings: 3 μM CHIR
[2] = system: sorted NKX2-1GFP+ epithelial lung progenitors; assay: Purified NKX2-1GFP+ lung progenitors replated in 3D culture with or without CHIR, day 14 to 20; format: cell-based, human
Description: Cells grown in two-dimensional culture were harvested by incubation with 0.05% Trypsin-EDTA for 10-20 minutes at 37° C. Cells cultured in three-dimensional growth factor reduced Matrigel were harvested by incubation with 2 mg/mL dispase (ThermoFisher) for 30-60 minutes at 37° C. then subsequent incubation with 0.05% trypsin at 37° C. until a single cell suspension was achieved. Cells were washed with media containing 10% fetal bovine serum (FBS, ThermoFisher.) Harvested cells were spun at 300 RCF for 5 minutes at 4° C. and resuspended in buffer containing Hank's Balanced Salt Solution (ThermoFisher), 2% FBS and 10 μM Y-27632 (Tocris) and stained with propidium iodide (ThermoFisher) or calcein blue AM (ThermoFisher) for dead cell exclusion during flow cytometry. Live cells were sorted on a high speed cell sorter (MoFlo Legacy, Beckman Coulter, Pasadena, Calif.) at the Boston University Medical Center Flow Cytometry Core Facility based on NKX2-1GFP expression or by staining for CD47 (Biolegend) and CD26 (Biolegend) and gating for CD47^hi/CD26^−. […]
The final protocol for generating rapidly proximalized NKX2-1+ lung epithelium was replating unsorted or sorted cells for 4 days of culture post-specification in cSFDM containing 10 ng/mL FGF10. […] Cells were analyzed for expression of proximal markers 4 days post-replating in FGF10 media.
The inventors next assessed whether the effect of CHIR manipulation on proximodistal lung patterning was intrinsic to lung epithelial cells rather than due to secondary or bystander effects. […] By day 20, the sorted cells formed small spheres coexpressing NKX2-1 and EPCAM (FIG. 3B-3C). >90% of all outgrowth cells in either culture conditioned maintained NKX2-1^GFP (+CHIR: 98.2±0.5%−CHIR: 93.4±2.3%) (FIG. 3D-3E) and cells in each condition formed organoids with no measured statistical difference in efficiency.

[3] = withdrawal of CHIR, re-sorted NKX2-1GFP+ cells at day 20

`Cc1c[nH]c(-c2cnc(NCCNc3ccc(C#N)cn3)nc2-c2ccc(Cl)cc2Cl)n1` [CHIR, CHIR99021] was tested, and the “Wnt activation (lentiviral TCF reporter)” value [1] was “induce Wnt activation”, the cytotoxicity [1] was “without significant cytotoxicity” and the “outgrowth cells maintaining NKX2-1GFP on day 20” value ([2]; +CHIR day 14-20, 3D culture of sorted cells, flow cytometry, −CHIR: 93.4±2.3%) was 98.2±0.5%. The “expression of distal lung genes SOX9 and ETV5” value [2, 3] was “downregulation” and the “expression of proximal lung genes SOX2, SCGB3A2, TP63” value [2, 3] was “upregulation”.
